Results published in US8415476B2, “Indazole having analgesic activity” (Aziende Chimiche Riunite Angelini Francesco A.C.R.A.F. …, priority 2003, dated 2013).

What was measured:
[1] = test system: mechanical hyperalgesia in rats with diabetes induced by streptozotocin; experiment: Mechanical hyperalgesia in rats with diabetes induced by streptozotocin; format: in vivo, rat; conditions: male CD rats, streptozotocin 80 mg/kg i.p. diabetic neuropathy, dose 10^-5 mol/kg, vehicle 112 ± 4.0, normal animals 240±8.7 g
Procedure: The pain threshold of normal animals of equal weight/age=155±2.1 g 2. Mechanical Hyperalgesia in Rats with Diabetes Induced by Streptozotocin
Male CD rats weighing 240-300 g on arrival were used.
Diabetic syndrome was induced by a single intraperitoneal (i.p.) injection of 80 mg/kg of streptozotocin dissolved in sterile physiological solution [Courteix C, Eschalier A, Lavarenne J. Streptozotocin-induced diabetic rats: behavioural evidence for a model of chronic pain. Pain, 1993; 53: 81-88; Bannon A W, Decker M W, Kim Dj, Campbell J E, Arneric S P. ABT-594, a novel cholinergic channel modulator, is efficacious in nerve ligation and diabetic neuropathy models of neuropathic pain. Brain Res. 1998; 801: 158-63].
After at least three weeks following the injection of streptozotocin, rats were selected having a level of glycaemia ≧300 mg/dl and having a response threshold to a mechanical nociceptive stimulus ≦120 g. The glycaemia levels were measured by means of a reflectometer using reactive strips impregnated with glucose oxidase. The pain threshold was measured using an analgesiometer. By applying a gradual increase in pressure on the dorsal zone of the rat's left hind foot, the instrument makes it possible to record the nocifensive response, expressed in grams, corresponding to the moment when the animal retracts its foot.
At 2 h following the treatment, the pain threshold measured in control animals was compared with that measured in animals treated with the product under examination (dose 10^−5 mol/kg).
The control animals were treated with the same vehicle (water) used for administering the products under examination.

[2] = test system: mechanical hyperalgesia induced by CFA in the rat; experiment: Mechanical hyperalgesia induced by CFA in the rat; format: in vivo; conditions: male CD rats, dose 10^-5 mol/kg, test 23 hours after injection of CFA, vehicle 121 ± 4.1, normal animals 155±2.1 g
From the text: 1. Mechanical Hyperalgesia Induced by CFA in the Rat
Male CD rats weighing 150-200 g on arrival were used. Using an analgesiometer, rats were selected having a response threshold to a mechanical nociceptive stimulus of from 150 to 180 g. By applying a gradual increase in pressure on the dorsal zone of the rat's left hind foot, the instrument makes it possible to record the nocifensive response, expressed in grams, corresponding to the moment when the animal retracts its foot [Randall L O and Semite J J. A method for the measurement of analgesic activity on inflamed tissue. Arch. Int. Pharmacodyn. Ther. 1957; 111: 409-419].
Hyperalgesia was induced by unilateral injection of 150 μl of Complete Freund's Adjuvant (CFA) in the plantar surface of the animal's left hind foot [Andrew D, Greenspan J D. Mechanical and heat sensitization of cutaneous nociceptors after peripheral inflammation in the rat. J Neurophysiol 1999; 82(5): 2649-2656; Hargreaves K, Dubner R, Brown R, Flores C, Joris J. A new and sensitive method for measuring thermal nociception in cutaneous hyperalgesia. Pain 1988; 32: 77-88].
The compounds under examination were tested (dose 10^−5 mol/kg) by carrying out the test 23 hours after injection of CFA.
At 1 h following the treatment, the pain threshold measured in control animals was compared with that measured in animals treated with the product under examination. The control animals were treated with the same vehicle (water) used for administering the products under examination.

SMILES	Pain threshold (g) 2 h after treatment [1] [g]	Pain threshold (g) 1 h after treatment [2] [g]	melting point
Cl.Cn1nc(NC(=O)C2CCN(CCc3ccc(O)cc3)CC2)c2ccccc21 [AF3R330]	171 ± 9.6	161 ± 10.5	–
CC(C)n1nc(C(=O)NCC2CCN(CCc3ccc(N)cc3)CC2)c2ccccc21.Cl.Cl [AF3R294, N((1-(2-(4-aminophenyl)ethyl)-4-piperidinyl)methyl)-1-(1-methylethyl)-1H-indazole-3-carboxamide dihydrochloride]	198 ± 18.6	194 ± 22.4	–
Cl.Cl.Nc1ccc(CCN2CCC(CNC(=O)c3n[nH]c4ccccc34)CC2)cc1 [AF3R302, N((1-(2-(4-aminophenyl)ethyl)-4-piperidinyl)methyl)-1H-indazole-3-carboxamide dihydrochloride]	164 ± 10.2	160 ± 10.2	–
Cl.Cn1nc(NC(=O)C2CCN(CCc3ccccc3)CC2)c2ccccc21 [AF3R334, N-(1-methyl-1H-indazol-3-yl)-1-(2-phenylethyl)piperidine-4-carboxamide hydrochloride]	184 ± 10.5	170 ± 11.0	235 to 237 °C
Cc1ccc2c(c1)c(C(=O)NCC1CCN(CCc3ccc(O)cc3)CC1)nn2C(C)C.Cl [AF3R296, N((1-(2-(4-hydroxyphenyl)ethyl)-4-piperidinyl)methyl)-5-methyl-1-(1-methylethyl)-1H-indazole-3-carboxamide hydrochloride]	154 ± 8.7	151 ± 10.7	–
COc1ccc(CCN2CCC(C(=O)Nc3nn(C)c4ccccc34)CC2)cc1.Cl [AF3R328, N-(1-methyl-1H-indazol-3-yl)-1-(2-(4-methoxyphenyl)ethyl)piperidine-4-carboxamide hydrochloride]	158 ± 6.2	150 ± 8.7	137 to 139 °C (dec.)
CC(C)n1nc(C(=O)NCC2CCN(CCc3ccc([N+](=O)[O-])cc3)CC2)c2ccccc21.O=C(O)C(=O)O [AF3R306, N((1-(2-(4-nitrophenyl)ethyl)-4-piperidinyl)methyl)-1-(1-methylethyl)-1H-indazole-3-carboxamide oxalate]	184 ± 13.8	186 ± 11.0	–
Cl.O=C(NCC1CCN(CCc2ccc([N+](=O)[O-])cc2)CC1)c1n[nH]c2ccccc12 [AF3R298, N((1-(2-(4-nitrophenyl)ethyl)-4-piperidinyl)methyl)-1H-indazole-3-carboxamide hydrochloride]	170 ± 10.2	174 ± 9.8	–
